Where “and” joins values, the source holds several entries; their conditions need not be identical. Equal values may be shown once. Read-outs that look alike come from different tables or passages of the source.
Key:
[1] = tested on: Chaetomium thermophilum ALKO4265 laccase, purified wild type (CtL; CtLcc1); format: biochemical; conditions: pH 5
[2] = molecular target: T1, Thielavia arenaria ALKO4197 laccase TaLcc1, recombinant, SEQ ID NO: 39 (Canariomyces arenarius, UniProt F6N9E7); experiment: biochemical
T1 construct: plasmid pALK1342 (DSM 15484)
Procedure: (§1) The inhibition effect of different compounds on the activity of the laccases was determined as described in Example 2. except with Talcc4, with which the inhibition was analyzed using spectroscopic activity assay.

[3] = molecular target: Thielavia arenaria ALKO4197 laccase, purified wild type (TaLcc; TaLcc1) (Canariomyces arenarius, UniProt F6N9E7); experiment: biochemical; conditions: pH 5
[4] = tested on: Thielavia arenaria ALKO4197 laccase TaLcc4, recombinant, SEQ ID NO: 45; format: biochemical
Procedure: as §1

[5] = tested on: wild type Thielavia (TaLcc) laccase; format: biochemical, Thielavia arenaria; conditions: pH 5
[6] = tested on: TaLcc1; format: biochemical, Thielavia arenaria
Procedure: as §1

[7] = tested on: TaLcc2; format: biochemical, Thielavia arenaria
Procedure: as §1

[8] = tested on: CtLcc1; format: biochemical, Chaetomium thermophilum
Procedure: as §1

[9] = tested on: wild type Chaetomium (CtL) laccase; format: biochemical, Chaetomium thermophilum; conditions: pH 5
[10] = molecular target: T2, Melanocarpus albomyces laccase (MaL) (Melanocarpus albomyces, UniProt Q70KY3); experiment: Kinetic parameters of MaL; format: biochemical; conditions: 40 mM MES buffer, pH 6, 25° C.
T2 sequence (Q70KY3 51-609): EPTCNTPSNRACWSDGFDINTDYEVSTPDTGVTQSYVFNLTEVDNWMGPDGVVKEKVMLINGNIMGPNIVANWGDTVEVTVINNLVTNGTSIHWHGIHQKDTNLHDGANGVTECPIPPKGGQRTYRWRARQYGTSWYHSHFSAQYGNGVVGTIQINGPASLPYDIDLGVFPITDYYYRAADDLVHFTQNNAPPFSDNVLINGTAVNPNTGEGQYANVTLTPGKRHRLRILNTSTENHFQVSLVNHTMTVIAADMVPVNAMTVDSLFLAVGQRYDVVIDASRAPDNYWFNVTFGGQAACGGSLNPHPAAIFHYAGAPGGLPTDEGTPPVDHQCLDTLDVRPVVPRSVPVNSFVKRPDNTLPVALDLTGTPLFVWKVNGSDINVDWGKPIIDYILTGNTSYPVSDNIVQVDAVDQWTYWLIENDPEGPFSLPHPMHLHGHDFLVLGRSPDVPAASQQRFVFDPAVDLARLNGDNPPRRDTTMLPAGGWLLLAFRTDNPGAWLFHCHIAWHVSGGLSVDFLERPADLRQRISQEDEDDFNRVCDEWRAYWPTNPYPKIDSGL
Procedure: (§2) On syringaldazin and DMP 40 mM MES buffer, pH 6 was used. All activity assays were carried out at 25° C. Kinetic parameters were estimated by a nonlinear regression curve fit. The values were compared to those of Melanocarpus albomyces MaL, laccase.

[11] = tested on: Thielavia arenaria ALKO4197 laccase TaLcc3, recombinant, SEQ ID NO: 43; experiment: Kinetic parameters of TaLcc3; format: biochemical; conditions: 40 mM MES buffer, pH 6, 25° C.
Procedure: as §2

[12] = tested on: Thielavia arenaria ALKO4197 laccase TaLcc4, recombinant, SEQ ID NO: 45; experiment: Kinetic parameters of TaLcc4; format: biochemical; conditions: 40 mM MES buffer, pH 6, 25° C.
Procedure: as §2

[13] = molecular target: T1, Thielavia arenaria ALKO4197 laccase TaLcc1, recombinant, SEQ ID NO: 39; format: biochemical; conditions: 40 mM MES buffer, pH 6, 25° C.
Procedure: as §2

[14] = tested on: TaLcc4; format: biochemical, Thielavia arenaria; conditions: inhibitor 0.5 mM; spectrofotometric ABTS assay
[15] = molecular target: T3, Chaetomium thermophilum ALKO4265 laccase CtLcc1, recombinant, SEQ ID NO: 47 (Thermochaetoides thermophila, UniProt G0S3A5); format: biochemical
T3 construct: plasmid pALK1304 (DSM 15075)
Procedure: as §1

[16] = molecular target: T4, Thielavia arenaria ALKO4197 laccase TaLcc2, recombinant, SEQ ID NO: 41 (Canariomyces notabilis, UniProt A0AAN6TC87); format: biochemical
T4 construct: plasmid pALK1347 (DSM 15486)
Procedure: as §1

[17] = Specific activity towards syringaldazine; format: biochemical; conditions: 25 mM MES buffer, pH 5.5
Procedure: (§3) Specific activities of the purified T. arenaria and C. thermophilum laccases were determined towards different laccase substrates.

[18] = Stain removal, grass soiling; parameters: key to Grass L* / Grass a* / Grass b*: CIE L*a*b* color coordinates from reflectance; conditions: 60 min, 40° C., pH 6; enzyme 20 nkat/g + mediator 2 mg/g (Mediator only: 0 nkat/g)
Procedure: (§4) Laccases CtLcc1, TaLcc2, TaLcc4 and Denilite II Base (Example 7) were tested for their ability to remove stains. The following artificially soiled test cloths were used: grass soiling (Art.164, EMPA Testmaterialen, Germany), tea soiling (Art. 167, EMPA Testmaterialen, Germany). The fabric was cut in 5.8×5.8 cm swatches. Laccase treatments were performed in LP-2 Launder Ometer as follows. About 5 g of soiled fabrics were loaded into 1.2 liter containers containing 150 ml Mc Ilvaine's citrate phosphate buffer pH 6 and the containers were temperated. Enzyme with or without the mediator (methyl syringate, DeniLite II Assist, Novozymes) was added as laccase activity units (Example 7). Enzyme was dosed 200 nkat/g and the mediator 10 mg/g on the weight of fabric, except at 40° C. dosages of 20 nkat/g and 2 mg/g were also used. The Launder Ometer was run at 40, 50 or 60° C. and pH 6 for 60 min. After that the swatches were carefully rinsed under running water and in shake flasks containing warm water and dried in the air.
(§5) The stain removal effect was evaluated by measuring the colour as reflectance values using L*a*b* color space coordinates (Example 7). The colour of the swatches was measured before and after the laccase treatment.

[19] = Specific activity towards di-methoxy-phenol (DMP); format: biochemical; conditions: 25 mM MES buffer, pH 5.5
Procedure: as §3

[20] = Redox potential, combined Pt-AgCl/KCl microelectrode; format: physicochemical; conditions: combined Pt-AgCl/KCl microelectrode at pH 5.0
Procedure: (§6) The purified recombinant Thielavia and Chaetomium laccases were characterized in terms of pH optimum, thermal stability, and pI as described in Example 2. The molecular weight was determined by MALDI-TOF mass spectrometry on a Ultraflex™ time-of-flight instrument (BrukerDaltonics, Germany) as previously described (Palonen et al., 2003). The redox-potentials of the T1 coppers of for CtLcc, and TaLcc2 laccases were determined by photometric copper titration in 0.1 M KH2PO4 (pH 6.0) as described by Xu et al. (1996) using the redox titrant couple K3Fe(CN)6/K4Fe(CN)6. The redox potential of TaLcc1 was determined with a combined Pt—AgCl/KCl microelectrode at pH 5.0 according to Sigoillot et al (2004). The characterization results are collected to Table 14.

[21] = Stain removal, tea soiling; parameters: key to Tea L* / Tea a* / Tea b*: CIE L*a*b* color coordinates from reflectance; conditions: 60 min, 40° C., pH 6; enzyme 20 nkat/g + mediator 2 mg/g (Mediator only: 0 nkat/g)
Procedure: as §4, §5

[22] = Specific activity towards ABTS; format: biochemical; conditions: 25 mM succinate buffer pH 4.5, 25° C.
Procedure: The activity assay was carried out in accordance with the method developed by Niku-Paavola et al. (1988). The sample was diluted with 0.025 M succinate buffer, pH 4.5. […] The activity is expressed as nano katals.
as §3

[23] = Specific activity towards guaiacol; format: biochemical; conditions: 25 mM MES buffer, pH 5.5
Procedure: as §3

[24] = Isoelectric focusing (pI); format: physicochemical; conditions: pH range 3-9
Procedure: Molecular weight of the T. arenaria and C. thermophilum laccases were determined on SDS-PAGE according to Laemmli (1970) The gels used in the SDS-PAGE analysis were ready-made 12% Tris HCl gels (BioRad). Protein bands were visualized by staining with Coomassie Brilliant Blue (R 350; Pharmacia) and compared with molecular weight markers (Prestained Protein Marker Broad Range #7708S; New England BioLabs, Beverly, Mass.). The molecular weight of the both laccases was approximately 80 kDa. The isoelectric point of the laccases was determined with isoelectric focusing within the pH range of 3-9 (Pharmalyte IEF, Pharmacia) on a LKB 2117 Multiphor II Electrophoresis System (LKB Pharmacia, Bromma, Sweden) according to the manufacturer's instructions.
as §6

T4 sequence (A0AAN6TC87 entry or part of it): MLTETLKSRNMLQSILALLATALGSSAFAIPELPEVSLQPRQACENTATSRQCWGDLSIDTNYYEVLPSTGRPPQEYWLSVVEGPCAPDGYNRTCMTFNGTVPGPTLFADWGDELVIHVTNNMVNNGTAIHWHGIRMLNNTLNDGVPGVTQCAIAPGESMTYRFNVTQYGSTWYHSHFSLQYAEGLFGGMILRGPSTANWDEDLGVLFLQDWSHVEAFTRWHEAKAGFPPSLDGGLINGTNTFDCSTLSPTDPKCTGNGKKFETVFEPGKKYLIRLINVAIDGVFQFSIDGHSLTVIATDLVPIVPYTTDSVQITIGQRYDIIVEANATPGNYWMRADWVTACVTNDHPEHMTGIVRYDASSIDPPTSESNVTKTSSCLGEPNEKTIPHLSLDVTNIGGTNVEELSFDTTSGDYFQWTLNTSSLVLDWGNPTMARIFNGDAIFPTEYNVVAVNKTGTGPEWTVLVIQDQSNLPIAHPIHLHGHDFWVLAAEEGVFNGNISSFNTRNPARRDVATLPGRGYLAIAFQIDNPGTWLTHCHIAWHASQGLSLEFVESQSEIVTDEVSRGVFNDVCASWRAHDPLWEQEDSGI
T3 sequence (G0S3A5 entry or part of it): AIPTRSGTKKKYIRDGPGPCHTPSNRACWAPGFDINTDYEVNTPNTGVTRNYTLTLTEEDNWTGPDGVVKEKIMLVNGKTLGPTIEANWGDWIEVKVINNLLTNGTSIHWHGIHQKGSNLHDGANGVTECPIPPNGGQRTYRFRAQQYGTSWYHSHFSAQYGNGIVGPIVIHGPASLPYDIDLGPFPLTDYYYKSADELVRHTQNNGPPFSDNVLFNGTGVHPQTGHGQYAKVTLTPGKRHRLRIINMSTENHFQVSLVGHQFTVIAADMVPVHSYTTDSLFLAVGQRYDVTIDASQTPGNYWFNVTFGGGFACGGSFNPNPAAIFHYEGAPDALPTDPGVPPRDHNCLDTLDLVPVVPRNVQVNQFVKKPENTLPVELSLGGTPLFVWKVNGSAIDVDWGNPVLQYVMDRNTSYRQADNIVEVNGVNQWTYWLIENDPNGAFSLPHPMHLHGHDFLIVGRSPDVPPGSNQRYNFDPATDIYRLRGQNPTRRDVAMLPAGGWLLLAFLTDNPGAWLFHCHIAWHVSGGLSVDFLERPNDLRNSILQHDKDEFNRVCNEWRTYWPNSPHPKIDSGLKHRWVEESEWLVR

**Q.** Which “Inhibition (%)” value [1] does the source give for O=C(O)CN(CCN(CC(=O)O)CC(=O)O)CC(=O)O [EDTA] here?
**A.** 0%

**Q.** And the inhibition at 10000 µM [2]?
**A.** 5%

**Q.** What about the inhibition at 10000 µM [3] of the same molecule?
**A.** 0%

**Q.** And the “Inhibition (%)” value [4]?
**A.** 2%

**Q.** For [Cl-].[Na+] [NaCl], which “Inhibition (%) TaLcc” value [5] is on record?
**A.** 35% and 42%

**Q.** What about the “Inhibition (%) TaLcc1” value [6] of the same molecule?
**A.** 0%

**Q.** And the “Inhibition (%) TaLcc2” value [7]?
**A.** 20% and 30%

**Q.** And the “Inhibition (%) CtLcc1” value [8]?
**A.** 0% and 10%

**Q.** What about the “Inhibition (%) CtL” value [9] of the same molecule?
**A.** 0% and 10%

**Q.** What does the source list for COc1cccc(OC)c1O [DMP, 2,6-dimethoxy phenol]?
**A.** kcat [10]: 69.33 s⁻¹; Km [11]: 14 µM; kcat [11]: 0.083 s⁻¹; Km [12]: 1900 µM; kcat [12]: 26.5 s⁻¹; Km [13]: 17 µM; kcat [13]: 67.17 s⁻¹

**Q.** What does the source list for [N-]=[N+]=[N-].[Na+] [NaN3]?
**A.** Inhibition (%) [1]: 100%; Inhibition (%) TaLcc1 ([6]; inhibitor 0.5 mM): 95%; Inhibition (%) TaLcc2 ([7]; inhibitor 0.5 mM): 95%; Inhibition (%) CtLcc1 ([8]; inhibitor 0.5 mM): 100%; Inhibition (%) CtL [9]: 100%; Inhibition (%) TaLcc4 [14]: 95%; Inhibition (%) [15]: 100%; Inhibition (%) [16]: 95%; Inhibition (%) [4]: 95%

B1: TaLcc1: Thielavia arenaria ALKO 4197 laccase, SEQ ID NO: 39, produced in Trichoderma reesei (protein)
chain: MKSWAAAVALMVGILSPHAAAAPPANPVQRDMLQVLEARQSGPTCNTPSNRACWTNGFDINTDYEVSTPNTGRTVAYQLTLTEKENWIGPDGVLKNVVMLVNDKIIGPTIRANWGDNIEVTVINNLKTNGTSMHWHGLRQLGNVFNDGANGVTECPIPPKGGRKTYKFRATQYGTSWYHSHFSAQYGNGVVGTIQIDGPASLPYDIDLGVFPLMDYYYRSADELVHFTQSNGAPPSDNVLFNGTARHPETGAGQWYNVTLTPGKRHRLRIINTSTDNHFQVSLVGHNMTVIATDMVPVNAFTVSSLFLAVGQRYDVTIDANSPVGNYWFNVTFGDGLCGSSNNKFPAAIFRYQGAPATLPTDQGLPVPNHMCLDNLNLTPVVTRSAPVNNFVKRPSNTLGVTLDIGGTPLFVWKVNGSAINVDWGKPILDYVMSGNTSYPVSDNIVQVDAVDQWTYWLIENDPTNPIVSLPHPMHLHGHDFLVLGRSPDELPSAGVRHIFDPAKDLPRLKGNNPVRRDVTMLPAGGWLLLAFKTDNPGAWLFHCHIAWHVSGGLSVDFLERPNDLRTQLNSNAKRADRDDFNRVCREWNAYWPTNPFPKIDSGLRHRFVEESEWMVR
modifications: Thielavia arenaria ALKO4197; (1)..(617) Deduced amino acid sequence of Thielavia arenaria ALKO4197 TaLcc1
**Q.** Which results are given for B1?
**A.** Specific activity on syringaldazin [17]: 340 nkat/mg; Grass L* [18]: 80.16; Grass a* [18]: −0.73; Grass b* [18]: 16.20; Specific activity on DMP [19]: 285 nkat/mg; E^0 [20]: 560 mV; Tea L* [21]: 77.17; Tea a* [21]: 4.65; Tea b* [21]: 24.40; Specific activity on ABTS [22]: 910 nkat/mg; Specific activity on guaiacol [23]: 61 nkat/mg; pI [24]: 5.5-6.9
